Results as given in patent publication US10519134B2, “Pyrazole compounds and methods of making and using same” (Lundbeck La Jolla Research Center, Inc., priority 2015, dated 2019).

What was measured:
MAGL [1] = target: T1, MAGL (Mus musculus, UniProt O35678); test: Mouse brain proteomes from inhibitor treated mice (oral gavage, sacrificed 4 h after administration); format: in vivo; conditions: read-out: MAGL % inh. 5 mg/kg
T1 construct: Proteomes (mouse brain membrane fraction or cell lysates); from tissue; host or cells: mouse brain membrane fraction (or cell lysates)
T1 sequence (O35678 1-303): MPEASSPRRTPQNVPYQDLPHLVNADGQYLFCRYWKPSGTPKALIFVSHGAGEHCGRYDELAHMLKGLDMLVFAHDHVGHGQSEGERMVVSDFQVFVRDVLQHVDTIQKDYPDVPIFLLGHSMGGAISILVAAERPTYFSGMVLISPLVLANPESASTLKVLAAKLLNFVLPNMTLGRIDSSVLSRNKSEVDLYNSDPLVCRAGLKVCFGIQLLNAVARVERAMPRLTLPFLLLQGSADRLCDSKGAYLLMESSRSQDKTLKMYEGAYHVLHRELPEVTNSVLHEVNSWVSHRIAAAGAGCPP
In short: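 Brains were collected 4 h after oral gavage dosing of wild-type C57Bl/6J mice, vehicle polyethylene glycol. Proteomes from these brains were then analyzed for MAGL and other serine hydrolase activity.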

MAGL [2] = target: T1, MAGL; test: In vitro competitive activity-based protein profiling (mouse), MAGL gel band; format: biochemical; conditions: for IC50: mouse; for inhibition at 1 µM: read-out: MAGL % inh. 1 μM
In short: (§1)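 Mouse brain membrane proteome or cell lysate (1.0 mg/mL protein) preincubated 30 min at 37 °C with varying inhibitor concentrations, then labelled 30 min at 37 °C with FP-Rh or HT-01 probe (50 μM stock). After SDS-PAGE, activity taken from fluorescent intensity of the MAGL and FAAH gel bands.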

FAAH = target: T2, FAAH (Mus musculus, UniProt O08914); test: In vitro competitive activity-based protein profiling (mouse), FAAH gel band; format: biochemical; conditions: for IC50: mouse; for inhibition at 1 µM: read-out: FAAH % inh. 1 μM
T2 construct: Proteomes (mouse brain membrane fraction or cell lysates); from tissue; host or cells: mouse brain membrane fraction (or cell lysates)
T2 sequence (O08914 1-579): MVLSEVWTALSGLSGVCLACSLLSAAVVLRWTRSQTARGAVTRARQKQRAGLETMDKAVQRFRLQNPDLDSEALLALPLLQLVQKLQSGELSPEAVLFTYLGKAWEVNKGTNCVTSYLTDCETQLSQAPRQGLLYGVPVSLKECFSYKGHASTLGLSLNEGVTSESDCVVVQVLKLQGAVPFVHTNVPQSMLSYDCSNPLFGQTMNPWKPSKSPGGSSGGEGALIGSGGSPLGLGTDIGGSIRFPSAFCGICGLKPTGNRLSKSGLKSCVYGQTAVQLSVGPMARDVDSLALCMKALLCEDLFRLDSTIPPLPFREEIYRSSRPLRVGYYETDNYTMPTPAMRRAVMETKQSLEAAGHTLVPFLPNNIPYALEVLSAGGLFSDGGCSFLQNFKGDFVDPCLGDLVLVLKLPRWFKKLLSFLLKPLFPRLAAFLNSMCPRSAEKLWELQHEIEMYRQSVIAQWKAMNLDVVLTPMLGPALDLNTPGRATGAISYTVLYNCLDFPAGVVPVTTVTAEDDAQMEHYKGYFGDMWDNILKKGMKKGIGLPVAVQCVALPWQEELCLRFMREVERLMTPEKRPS
In short: as §1

Compound | inhibition at 5 mg/kg (MAGL [1]) [%] | IC50 (MAGL [2]) [nM] | inhibition at 1 µM (MAGL [2]) [%] | IC50 (FAAH) [nM] | inhibition at 1 µM (FAAH) [%]
CS(=O)(=O)Nc1ccn(C(=O)N2CCN(Cc3ccc(Cl)cc3N3CCCC3)CC2)n1 [Example 127, N-(1-(4-(4-chloro-2-(pyrrolidin-1-yl)benzyl)piperazine-1-carbonyl)-1H-pyrazol-3-yl) methanesulfonamide] | ≥ 75 | ≤ 100 | ≥ 75 | 1000 to 10000 | 0 to 25
CS(=O)(=O)Nc1ccn(C(=O)N2CCN(Cc3ccc(C(F)(F)F)cc3N3CC4CCC(C3)O4)CC2)n1 [Example 130, N-(1-(4-(2-(8-oxa-3-azabicyclo[3.2.1]octan-3-yl)-4-(trifluoromethyl)benzyl)piperazine-1-carbonyl)-1H-pyrazol-3-yl) methanesulfonamide] | 50 to 75 | ≤ 100 | ≥ 75 | 1000 to 10000 | 0 to 25
Cc1c(CN2CCCC23CCN(C(=O)n2ccc(NS(C)(=O)=O)n2)CC3)cccc1N1CCCCC1 [Example 142, N-(1-(1-(2-methyl-3-(piperidin-1-yl)benzyl)-1,8-diazaspiro[4.5]decane-8-carbonyl)-1H-pyrazol-3-yl) methanesulfonamide] | 0 to 25 | ≤ 100 | ≥ 75 | 1000 to 10000 | 0 to 25
Cc1ccc(CN2CCN(C(=O)n3ccc(NS(C)(=O)=O)n3)CC2)c(N2CC3CCC(C2)O3)c1 [Example 146, N-(1-(4-(2-(8-oxa-3-azabicyclo[3.2.1]octan-3-yl)-4-methylbenzyl)piperazine-1-carbonyl)-1H-pyrazol-3-yl) methanesulfonamide] | 25 to 50 | ≤ 100 | ≥ 75 | 1000 to 10000 | 0 to 25
CS(=O)(=O)Nc1ccn(C(=O)N2CCC3(CCCN3Cc3ccc(C(F)(F)F)c(Cl)c3)CC2)n1 [Example 161, N-(1-(1-(3-chloro-4-(trifluoromethyl)benzyl)-1,8-diazaspiro[4.5]decane-8-carbonyl)-1H-pyrazol-3-yl) methanesulfonamide] | 0 to 25 | – | ≥ 75 | – | 0 to 25
CC(=O)Nc1ccn(C(=O)N2CCN(Cc3cccc(C(F)(F)F)c3-c3nnn[nH]3)CC2)n1 [Example 223, N-(1-(4-(2-(1H-tetrazol-5-yl)-3-(trifluoromethyl)benzyl)piperazine-1-carbonyl)-1H-pyrazol-3-yl)acetamide] | 0 to 25 | 1000 to 10000 | ≥ 75 | 1000 to 10000 | 0 to 25
CC(=O)Nc1ccn(C(=O)N2CCN(Cc3ccc(Cl)cc3N3CCC(C(=O)O)CC3)CC2)n1 [Example 248, 1-(2-((4-(3-acetamido-1H-pyrazole-1-carbonyl)piperazin-1-yl)methyl)-5-chlorophenyl) piperidine-4-carboxylic acid] | 0 to 25 | ≤ 100 | ≥ 75 | 1000 to 10000 | 0 to 25
CC(=O)Nc1ccn(C(=O)N2CCN(Cc3ccc(Cl)cc3-c3nnn[nH]3)CC2)n1 [Example 262, N-(1-(4-(4-chloro-2-(1H-tetrazol-5-yl)benzyl)piperazine-1-carbonyl)-1H-pyrazol-3-yl)acetamide] | 0 to 25 | ≤ 100 | ≥ 75 | 1000 to 10000 | 0 to 25
[2H]C([2H])([2H])C(=O)Nc1ccn(C(=O)N2CCC3(CCCN3Cc3ccc(Cl)c(C)c3)CC2)n1 [Example 286, N-(1-(1-(4-chloro-3-methylbenzyl)-1,8-diazaspiro[4.5]decane-8-carbonyl)-1H-pyrazol-3-yl)acetamide-2,2,2-d3] | ≥ 75 | – | ≥ 75 | – | 0 to 25
